A short description of data set [1]: Renal clearance (CLr) of SAL and PAH in hypoxic and normoxic rats. In kind it is in vivo. The note with it: rat, plasma and urine, iv. How it is done: The animal surgery was conducted as described in literature.[23,24] Briefly, the cannulae were inserted into rat right jugular veins, left femoral veins, and bladders after an i.m. injection of 90 mg kg^−1 ketamine and 9 mg kg^−1 xylazine. All surgical procedures were performed under anaesthesia and in a clean surgical room with sterilized instruments. […] Urine from the bladder was collected through the catheter into pre-weighed micro-centrifuge tubes and the volume of urine collected during each 30 min period was calculated by weight. To equilibrate and establish a steady rate of urine excretion, rats were continuously infused with warm saline solution containing mannitol (5%, w/v) for 1 h at a rate of 16 μl min^−1 through the femoral veins (n = 5 each group) using a Sage Instruments Syringe Pump (Cambridge, MA, USA). During the experiment, the rat was placed on a heating pad to maintain body temperature. […] After each blood sampling, an aliquot of 200 μl saline was infused into the jugular to replace the volume of blood taken.

For data set [2] the following is noted: male, SD, rat, in vivo.
Data set [3] concerns Caco-2 monolayers. As to the kind of experiment: Transport of SAL across normoxic and hypoxic Caco-2 monolayers (Papp). It is filed as in vitro ADME, human. How it is done: (§1) The human colorectal adenocarcinoma cell line, Caco-2 cell, was obtained from Cell Resource Center, Institute of Basic Medical Sciences (CAMS). Caco-2 cells, a recognized cell model used for permeability study, were cultured in minimum essential medium (MEM) containing 10% fetal bovine serum, 1% nonessential amino acids, 100 U ml^−1 penicillin, and 100 μg ml^−1 streptomycin, and then were kept in a humidified incubator at 37 °C with 5% CO2. To obtain differentiated monolayers, Caco-2 cells were seeded in Transwell® chambers (12 mm, 0.4 μm pore size; Corning, MA, USA) at a density of 1 × 10^5 cells per wells and cultured for 21 days. TEER (trans-epithelial electrical resistance) was used to monitor the integrity of the monolayer. Monolayer with TEER above 600 Ω cm^2 was employed in the present study. Caco-2 cells grown in Transwell® at passage 32–45 were used for the experiment. After cultivation for 21 days, normoxic incubations were performed in a tissue culture incubator at 37 °C, 5% CO2, while hypoxic incubations were performed in an oxygen-control hypoxic glove box at 37 °C, 1% oxygen content for 24 h.[15] The enzyme activities of LDH, CS and the protein expression of HIF-1α were monitored for hypoxic model validation. The morphological study on hypoxic Caco-2 monolayer was performed with the aid of transmission electron microscopy (TEM) (JEM-2100F, Japan). The expression level of tight junction proteins (ZO-1) in Caco-2 cell under normoxic and hypoxic conditions was measured by western blotting.
(§2) According to the method published in Nature Protocols, the transport test was performed in Hank's balanced salt solution (HBSS) containing 5.56 mM glucose, 10 mM HEPES and 1.26 mM CaCl2.[16] Before experiment, the monolayers were washed twice with HBSS medium and pre-incubated for 30 min. […] Equal volume of the blank HBSS buffer was added back to the chambers after sampling to maintain a constant systemic volume. The collected samples were stored at −20 °C until UPLC-MS/MS analyses.
(§3) The Caco-2 monolayer was pre-incubated with phlorizin (100 μM) for 30 min before the transport experiment.

Experiment in data set [4]: as above
It is filed as in vitro ADME, human. The settings on record: human, SAL 10 μM. How it is done: as §1, §2, §3

The nature of data set [5]: Protein binding of SAL in rat plasma by ultrafiltration. It is filed as in vitro ADME. The settings on record: three spiking concentrations (100, 500, 1000 μg ml^−1), 37 °C, 30 min. How it is done:
After incubation at 37 °C for 30 min, an aliquot of 500 μl plasma was added into the upper part of the centrifugal filter device (Amicon®, cutoff value: 10 kDa). The centrifuge was then conducted in a rate of 11 300g for 30 min at room temperature. SAL in the original sample and ultrafiltrate were determined by UPLC-MS/MS method.

The conditions of data set [6]: cited from earlier work.
The nature of data set [7]: Stability of SAL in samples during UPLC-MS/MS method validation. It is filed as physicochemical. How it is done:
To prepare the samples for calibration curves, 10 μl of IS working solution (containing 100 μg ml^−1 paracetamol) and 10 μl of analyte work solution was added to 100 μl of blank rat plasma. Approximately 300 μl methanol was then added to the above plasma sample for protein precipitation. After centrifuging the mixture at 11 300g for 10 min, the supernatant was collected followed by being evaporated to dryness under nitrogen at room temperature. The residue was reconstituted with 100 μl of methanol. After being centrifuged at 11 300g for 10 min, an aliquot of 5 μl supernatant was injected into the UPLC-MS/MS system for analyses. […] For all QC samples in rat biological matrices, the % RSD of both intra-day and inter-day precision was below 10.4%, and the accuracy was within the range of 85.4 to 100%, which met the criteria from FDA.

Data set [8] in a line: in vivo. The settings on record: male, SD, rat.
For data set [9], the system named is SULT2A1. Briefly: Kinetics of p-tyrosol sulfate formation from p-tyrosol in rat liver S9 fraction (RLS), sulfation by SULT2A1. It is filed as in vitro ADME. How it is done: The formation rate of p-tyrosol sulfate could therefore serve as an indicator for the hepatic metabolic rate of SAL. […] The incubation was carried out at 37 °C and terminated by the addition of an equal volume of ice-cold methanol containing 5 μM IS.[18] The content of p-tyrosol sulfate was determined by the UPLC-MS/MS described above. […] All the experiments were carried out in triplicate.
GraphPad Prism® was employed to analyze enzyme kinetic data.

Data set [10] deals with CBG. More on the design: method as in doi:10.1021/symposium. The settings on record: other phenolic glycosides; cited from earlier work.
Substrate in data set [11]: OC[C@H]1O[C@@H](OCCc2ccc(O)cc2)[C@H](O)[C@@H](O)[C@@H]1O
As to the kind of experiment: cells, lysate or membranes named. The settings on record: pH 7.4, 37.0 °C.

Setting [12] is: Caco-2, hypoxic Caco-2 monolayer model (1% O2, 24 h).
Where [13] appears, read: Caco-2, normoxic Caco-2 monolayer model.
Setting [14] is: background statement, no reference given.

Where a name gives a salt, the structure may show the parent alone. Read-outs that look alike come from different tables or passages of the source.

Take `Nc1ccc(C(=O)NCC(=O)O)cc1` [PAH, p-aminohippuric acid, reference compound]: the CL renal in data set [1] (30 mg/kg, hypoxic rats, PAH 30 mg kg^−1 i.v. bolus) was 0.818 mL/min/kg; in [1] (30 mg/kg, normoxic rats, PAH 30 mg kg^−1 i.v. bolus), 3.28 mL/min/kg.
Broadly, the Cmax is the highest concentration seen after dosing. Usually Tmax stands for the time from dosing to the highest level. As a reminder, the Papp A→B is the apparent permeability from the apical to the basolateral side of a cell layer. A lower Papp A→B goes with poor permeation. Usually Papp B→A stands for how fast a substance crosses the layer from the basolateral side. As a reminder, the MRT last is the average time that molecules of a dose stay in the body. The term half-life denotes how long it takes for the measured level to halve. On to `OC[C@H]1O[C@@H](OCCc2ccc(O)cc2)[C@H](O)[C@@H](O)[C@@H]1O` [SAL, salidroside], for which the “MRT(0→t)” value in [2] (iv, 444 ug/kg) worked out at 70.9 ± 7.9 min. The molecule also displayed a t1/2 in data set [2] (iv, 444 ug/kg) of 97.5 ± 12.5 min. In addition, the Cmax in data set [2] (po, 4.44 mg/kg) was determined as 1835.4 ± 690.5 ng/mL; in data set [8] (po, 4.44 mg/kg, Cmax) it was 2070 ± 264 ng/mL. For the same molecule, the Tmax in [2] (po, 4.44 mg/kg) is 48.0 ± 16.4 min; in data set [8] (po, 4.44 mg/kg, Tmax), 36 min. Moreover, the “ratio between Papp(A→B) and Papp(B→A)” value in data set [3] (hypoxic Caco-2 monolayer model) is recorded as 2.53; in data set [3] (normoxic Caco-2 monolayer model) it was 10.0; in data set [3] (normoxic Caco-2 monolayer model, after addition of SGLT1 inhibitor (phlorizin 100 μM)), 2.24. Further, the Papp A→B at 180 min, 10 μM stood at 1.77 ± 0.18 ×10⁻⁶ cm/s in data set [4] (setting [12]) and 0.88 ± 0.11 ×10⁻⁶ cm/s in data set [4] (setting [13]). Also, the Papp B→A at 180 min, 10 μM came out at 0.7 ± 0.2 ×10⁻⁶ cm/s in [4] (setting [12]) and 0.088 ± 0.02 ×10⁻⁶ cm/s in data set [4] (setting [13]). Besides, the CL renal in data set [1] (444 ug/kg, hypoxic rats, SAL 444 μg kg^−1 i.v. bolus) is 0.497 mL/min/kg; in [1] (444 ug/kg, normoxic rats, SAL 444 μg kg^−1 i.v. bolus) it was 1.77 mL/min/kg. In [5], the “plasma binding ratio, hypoxic versus normoxic rats” value is recorded as “similar”. In data set [6] (after oral administration to rats, literature and preliminary studies), the “share of parent compound that undergoes deglycosylation and sulfation” value is “more than 50%”. The “share of administered SAL excreted from urine as parent compound” value in [6] (setting [14]) is reported as “about 20%”. In addition, the “share of eliminated SAL accounted for by renal clearance” value in data set [6] (setting [14]) is “no more than 20%”. Moreover, the stability entry in data set [7] (auto-sampler (4 °C) for 24 h) and in data set [7] (−80 °C for 30 days) was “stable” in each case. In addition, the MRT last in [8] (iv, 444 ug/kg, MRT(0→t)) was 48.3 min. The molecule further gave a half-life in data set [8] (iv, 444 ug/kg, t1/2) of 67.2 ± 11.8 min.
Consider `O=S(=O)(O)Oc1ccc(CCO)cc1` [p-Tyrosol sulfate, p-tyrosol sulfate], for which, in data set [6] (rats, systemic circulation), the “share of total metabolites of SAL” value was “over 50%”.
For the molecule `OCCc1ccc(O)cc1` [p-tyrosol], in data set [9] (hypoxic RLS), the “Clint of SULT2A1” value came to 10.4 ± 2.7 µL/min/mg and the “Vmax of SULT2A1 (p-tyrosol sulfate formation from p-tyrosol)” value is 78.3 ± 11.2 nmol/min/mg. In data set [9] (normoxic RLS), the “Clint of SULT2A1” value was 5.8 ± 1.2 µL/min/mg and the “Vmax of SULT2A1 (p-tyrosol sulfate formation from p-tyrosol)” value came to 23.3 ± 4.4 nmol/min/mg.
By Km is commonly meant the substrate concentration at which the rate is half of its maximum. For daidzein 4-glycoside, the Km in data set [10] was 50 µM.
Take quercetin 4-glycoside: the Km in data set [10] is 65 µM.

B1: cytosolic β-glucosidase (CBG) (Rattus norvegicus) (protein)
chain: MAFPVGFGWGAATAAYQVEGGWDADGRGPCVWDTFTHQGGERVFENQTGDVACGSYTLWEEDLKCIKQLGLTHYRFSLSWSRLLPDGTTGFINQKGIDYYNKIIDDLLKNGVTPIVAIYHFDLPQALEDLGGWLSEAIVEAFDKYAQFCFSTFGDRVKQWLTINEPNILALLAYDMGIFAPGVPHIGIGGYQAAHNLIKAHARSWHSYDSLFREEQKGFVSLSLFFCWLEPADPNSEIDQEATKRAINFHLDFFAKPIFIDGDYPDVVKSQVASMSKKQGYPSSRLPEFTEEEKKMIKGTADFFAVQYYTTRLVRHQENKKRELGFLQDVEIEFFPNPFWKNVGWIYVVPWGIRKLLKYIKDTYNNPVIYITENGFPQCDPPSLDDTQRWEYFRQTFQELFKAIHVDDVNLQLYCAWSLLDNFEWNNGYSRRFGLFHVDFEDPARPRTPYRSAKEYAKVIRDNGLAGAM
For the molecule B1, the Km in data set [11] (other: hypoxic RLS) turned out to be 19.5 ± 3.1 µM; in data set [11] (other: normoxic RLS), 5.2 ± 0.6 µM.

Source of the values: paper PMC9078534 (RSC Advances, 2018).
